# According to PMC3914206:
# Key:
# Format in all cases: binding
# Settings in all cases: Compound Concentration 10 µM
# [1] = biological target: T1, panel of 442 kinases (Homo sapiens, UniProt P19525)
# T1 construct: purchased KINOMEscan
# Text: (§1) We assessed the selectivity of members of this scaffold using the KINOMEscan methodology across a near comprehensive panel of 442 kinases [[18,27]].
# [2] = biological target: T2, panel of 442 kinases (Homo sapiens, UniProt Q12852)
# T2 construct: purchased KINOMEscan
# T2 sequence (Q12852 1-859): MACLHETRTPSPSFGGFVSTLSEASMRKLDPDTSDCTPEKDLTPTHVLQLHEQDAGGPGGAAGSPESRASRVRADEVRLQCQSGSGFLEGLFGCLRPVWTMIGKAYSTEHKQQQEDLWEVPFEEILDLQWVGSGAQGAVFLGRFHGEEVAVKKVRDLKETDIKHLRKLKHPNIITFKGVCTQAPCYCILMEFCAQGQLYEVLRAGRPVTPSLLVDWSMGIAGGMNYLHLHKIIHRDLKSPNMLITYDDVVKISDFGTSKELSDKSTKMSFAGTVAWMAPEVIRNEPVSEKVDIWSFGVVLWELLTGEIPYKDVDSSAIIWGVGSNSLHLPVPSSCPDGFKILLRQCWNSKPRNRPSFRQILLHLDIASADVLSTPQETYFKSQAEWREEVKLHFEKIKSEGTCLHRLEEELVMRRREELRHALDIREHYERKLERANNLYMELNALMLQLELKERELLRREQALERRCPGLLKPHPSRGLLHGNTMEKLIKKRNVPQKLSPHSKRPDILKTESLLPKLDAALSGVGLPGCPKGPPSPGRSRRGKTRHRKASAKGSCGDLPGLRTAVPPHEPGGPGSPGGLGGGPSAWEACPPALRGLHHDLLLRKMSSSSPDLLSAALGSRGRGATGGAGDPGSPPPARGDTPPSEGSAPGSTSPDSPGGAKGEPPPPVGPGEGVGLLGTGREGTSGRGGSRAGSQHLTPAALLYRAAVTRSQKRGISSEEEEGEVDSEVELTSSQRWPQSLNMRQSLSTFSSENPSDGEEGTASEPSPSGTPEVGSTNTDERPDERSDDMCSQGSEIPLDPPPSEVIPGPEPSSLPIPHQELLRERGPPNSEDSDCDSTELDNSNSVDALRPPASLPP
# Text: as §1
# [3] = biological target: T3, panel of 442 kinases (Homo sapiens, UniProt P15056)
# T3 construct: purchased KINOMEscan
# Text: as §1
# T1 sequence (P19525 whole entry): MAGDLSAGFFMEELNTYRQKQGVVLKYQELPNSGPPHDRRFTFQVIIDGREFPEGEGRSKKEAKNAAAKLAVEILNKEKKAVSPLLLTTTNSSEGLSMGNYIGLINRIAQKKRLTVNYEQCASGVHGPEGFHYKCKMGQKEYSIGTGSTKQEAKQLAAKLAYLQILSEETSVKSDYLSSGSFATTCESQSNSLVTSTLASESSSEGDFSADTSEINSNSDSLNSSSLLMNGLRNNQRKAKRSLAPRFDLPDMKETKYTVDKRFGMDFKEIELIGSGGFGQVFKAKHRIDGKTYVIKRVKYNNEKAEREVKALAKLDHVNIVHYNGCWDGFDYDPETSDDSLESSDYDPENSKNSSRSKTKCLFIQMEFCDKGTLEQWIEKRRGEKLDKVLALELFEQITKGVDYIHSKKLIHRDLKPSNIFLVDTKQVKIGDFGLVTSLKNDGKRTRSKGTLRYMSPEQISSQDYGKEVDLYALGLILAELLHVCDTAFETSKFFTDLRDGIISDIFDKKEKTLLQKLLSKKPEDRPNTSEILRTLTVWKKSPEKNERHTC
# T3 sequence (P15056 whole entry): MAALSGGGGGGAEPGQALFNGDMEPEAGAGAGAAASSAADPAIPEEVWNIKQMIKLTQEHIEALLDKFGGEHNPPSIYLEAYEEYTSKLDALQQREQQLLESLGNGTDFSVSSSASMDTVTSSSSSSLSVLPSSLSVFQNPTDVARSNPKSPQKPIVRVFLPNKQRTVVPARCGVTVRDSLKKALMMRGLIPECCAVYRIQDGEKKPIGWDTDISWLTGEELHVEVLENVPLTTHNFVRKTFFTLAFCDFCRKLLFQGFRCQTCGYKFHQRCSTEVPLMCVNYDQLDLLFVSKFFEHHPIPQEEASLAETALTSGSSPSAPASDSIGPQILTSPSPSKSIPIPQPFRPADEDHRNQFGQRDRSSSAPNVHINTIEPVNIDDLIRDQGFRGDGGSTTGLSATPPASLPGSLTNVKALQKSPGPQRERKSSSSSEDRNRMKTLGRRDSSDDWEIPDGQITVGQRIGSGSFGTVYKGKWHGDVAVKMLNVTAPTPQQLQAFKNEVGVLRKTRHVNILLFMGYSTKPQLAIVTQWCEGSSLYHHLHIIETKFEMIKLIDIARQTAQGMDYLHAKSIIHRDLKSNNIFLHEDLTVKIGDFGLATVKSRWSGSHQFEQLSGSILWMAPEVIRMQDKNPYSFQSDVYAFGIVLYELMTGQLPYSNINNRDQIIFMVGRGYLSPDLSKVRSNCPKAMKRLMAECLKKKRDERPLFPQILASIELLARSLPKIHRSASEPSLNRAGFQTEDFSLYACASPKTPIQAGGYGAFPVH
Compound,KINOMEscan: PRKR [1],KINOMEscan: DLK [2],KINOMEscan: BRAF [3]
COc1cc(C(=O)N2CCC(N3CCN(C)CC3)CC2)ccc1Nc1ncc2c(n1)N1CCc3cccc(c31)C(=O)N2C [Compound 24],33,78,
CCOc1cc(C(=O)N2CCC(N3CCN(C)CC3)CC2)ccc1Nc1ncc2c(n1)N(C1CCCC1)c1ccccc1C(=O)N2C [Compound 26],97,100,90
"COc1cc(C(=O)N2CCC(N3CCN(C)CC3)CC2)ccc1Nc1ncc2c(n1)N(C1CCCC1)c1ccccc1C(=O)N2C [Compound 25, 11-cyclopentyl-2-((2-methoxy-4-(4-(4-methylpiperazin-1-yl)piperidine-1-carbonyl)phenyl)amino)-5-methyl-5H-benzo[e]pyrimido[5,4-b][1,4]diazepin-6(11H)-one]",71,62,100
COc1cc(C(=O)N2CCC(N3CCN(C)CC3)CC2)ccc1Nc1ncc2c(n1)N(C)c1ccccc1C(=O)N2C [15 (LRRK2-IN-1)],84,81,81
